Experimental data taken from ChEMBL document CHEMBL6177915, “Design, synthesis and mechanistic insights into triclosan derived dimers as potential anti-plasmodials” (RSC Med Chem, 2025).

Experiments:
Plasmodium falciparum [1] = test: Antiplasmodial activity against CQ-susceptible Plasmodium falciparum 3D7 assessed as inhibition of parasite growth incubated for 72 hrs by HRP2 based ELISA; assay type: functional, organism-based; conditions: 3D7, 72 h
[2] = Cytotoxicity against African green monkey Vero E6 cells assessed as cell viability measured after 48 hrs incubation by MTT assay; assay type: toxicity, cell-based, Vero C1008; conditions: chlorocebus sabaeus
Plasmodium falciparum [3] = test: Antiplasmodial activity against CQ-resistant Plasmodium falciparum W2 assessed as inhibition of parasite growth incubated for 72 hrs by HRP2 based ELISA; assay type: functional, organism-based; conditions: W2, 72 h
[4] = Selectivity index, ratio of CC50 for Cytotoxicity against African green monkey Vero E6 cells to IC50 for Antiplasmodial activity against CQ-resistant Plasmodium falciparum W2; assay type: toxicity, cell-based; conditions: read-out: Ratio CC50/IC50
Heme [5] = test: Binding affinity to heme assessed as binding constant logK of the compound in MES buffer at pH 5.6
Plasmodium falciparum [6] = test: Resistance index, ratio of IC50 for antiplasmodial activity against CQ-resistant Plasmodium falciparum W2 to IC50 for antiplasmodial activity against CQ-susceptible Plasmodium falciparum 3D7; assay type: functional
Heme [7] = test: Binding affinity to heme assessed as binding constant logK of the compound in HEPES buffer at pH 7.4
[8] = Inhibition of Plasmodium falciparum enoyl ACP reductase
Plasmodium falciparum [9] = test: Antiplasmodial activity against Plasmodium falciparum W2; assay type: functional, organism-based

Structure (SMILES) | IC50 (Plasmodium falciparum [1]) [µM] | CC50 at 48 h [2] [µM] | IC50 (Plasmodium falciparum [3]) [µM] | selectivity ratio [4] | log K (Heme [5]) | Ratio IC50 (Plasmodium falciparum [6]) | log K (Heme [7]) | IC50 [8] [µM] | IC50 (Plasmodium falciparum [9]) [µM]
Oc1cc(Cl)c(NCc2cn(CCCOc3cc(Cl)ccc3Oc3ccc(Cl)cc3Cl)nn2)cc1Oc1ccc(Cl)cc1Cl | 20.8 | 76.8 | 10.9 | 7 | 6.3 | 0.52 | 5.17 | – | –
Clc1ccc(Oc2ccc(Cl)cc2OCCCCn2cc(COc3cc(Cl)ccc3Oc3ccc(Cl)cc3Cl)nn2)c(Cl)c1 | 20.7 | 76.5 | 22.2 | 3.5 | – | 1.06 | – | – | –
Oc1cc(Cl)c(NCc2cn(CCCCCOc3cc(Cl)ccc3Oc3ccc(Cl)cc3Cl)nn2)cc1Oc1ccc(Cl)cc1Cl | 27.5 | 75 | 20 | 3.8 | – | 0.72 | – | – | –
O=[N+]([O-])c1cc(Oc2ccc(Cl)cc2Cl)c(OCc2cn(CCOc3cc(Cl)ccc3Oc3ccc(Cl)cc3Cl)nn2)cc1Cl | 29.8 | 91.8 | 28.6 | 3.6 | – | 0.95 | – | – | –
C=C[C@H]1C[N@@]2CC[C@H]1C[C@H]2[C@H](O)c1ccnc2ccc(OC)cc12 [QUININE] | – | > 100 | – | > 222 | – | – | – | – | –
O=[N+]([O-])c1cc(Oc2ccc(Cl)cc2Cl)c(OCc2cn(CCCCOc3cc(Cl)ccc3Oc3ccc(Cl)cc3Cl)nn2)cc1Cl | 32.9 | 83.9 | 25.4 | 3.3 | – | 0.77 | – | – | –
Clc1ccc(Oc2ccc(Cl)cc2OCCCCCCn2cc(COc3cc(Cl)ccc3Oc3ccc(Cl)cc3Cl)nn2)c(Cl)c1 | 31.2 | 104 | 32.6 | 3.2 | – | 1.04 | – | – | –
Oc1cc(Cl)c(NCc2cn(CCCCCCOc3cc(Cl)ccc3Oc3ccc(Cl)cc3Cl)nn2)cc1Oc1ccc(Cl)cc1Cl | 24.3 | 66.3 | 25.7 | 2.6 | – | 1.05 | – | – | –
Clc1ccc(Oc2ccc(Cl)cc2OCCn2cc(COc3cc(Cl)ccc3Oc3ccc(Cl)cc3Cl)nn2)c(Cl)c1 | 21.9 | 105 | 21.3 | 4.9 | – | 0.97 | – | – | –
O=[N+]([O-])c1cc(Oc2ccc(Cl)cc2Cl)c(OCc2cn(CCCOc3cc(Cl)ccc3Oc3ccc(Cl)cc3Cl)nn2)cc1Cl | 22.5 | 81.9 | 25.8 | 3.2 | – | 1.14 | – | – | –
CCN(CC)CCCC(C)Nc1ccnc2cc(Cl)ccc12 (configuration not stated) [CHLOROQUINE] | – | > 100 | – | – | – | – | – | – | –
Clc1ccc(Oc2ccc(Cl)cc2OCCCCCn2cc(COc3cc(Cl)ccc3Oc3ccc(Cl)cc3Cl)nn2)c(Cl)c1 | 19.3 | 64.6 | 25.3 | 2.6 | – | 1.3 | – | – | –
Clc1ccc(Oc2ccc(Cl)cc2OCCCCCCOc2cc(Cl)ccc2Oc2ccc(Cl)cc2Cl)c(Cl)c1 | 21.2 | 63.3 | 20.3 | 3.1 | – | 0.95 | – | – | –
Clc1ccc(Oc2ccc(Cl)cc2OCCCOc2cc(Cl)ccc2Oc2ccc(Cl)cc2Cl)c(Cl)c1 | 27.7 | 81.5 | 30.9 | 2.6 | – | 1.11 | – | – | –
Clc1ccc(Oc2ccc(Cl)cc2OCCOc2cc(Cl)ccc2Oc2ccc(Cl)cc2Cl)c(Cl)c1 | 12.1 | 90.9 | 9.27 | 9.8 | 6.58 | 0.77 | 6.4 | – | –
N#Cc1ccc(Oc2ccc(Cl)cc2Cl)c(O)c1 | – | – | – | – | – | – | – | 0.049 | –
O=C(N/N=C/c1ccc(OCc2cn(CCNc3ccnc4cc(Cl)ccc34)nn2)cc1)c1cnncn1 | – | – | – | – | – | – | – | – | 0.26
C=C[C@H]1CN2CC[C@H]1C[C@H]2[C@H](O)c1ccnc2ccc(OC)cc12 [QUININE] | 0.12 | – | 0.45 | – | – | 3.75 | – | – | –
CCNCc1cc(Nc2ccnc3cc(Cl)ccc23)ccc1O [DESETHYL AMODIAQUINE] | – | 87 | – | 725 | – | 6 | – | – | –
Clc1ccc(Oc2ccc(Cl)cc2OCCCCCOc2cc(Cl)ccc2Oc2ccc(Cl)cc2Cl)c(Cl)c1 | 26.1 | 70.2 | 34.4 | 2 | – | 1.31 | – | – | –
Oc1cc(Cl)ccc1Oc1ccc(Cl)cc1Cl | – | – | – | – | 6.16 | – | 5.8 | – | –
O=[N+]([O-])c1cc(Oc2ccc(Cl)cc2Cl)c(OCc2cn(CCCCCCOc3cc(Cl)ccc3Oc3ccc(Cl)cc3Cl)nn2)cc1Cl | 26.3 | 54.9 | 25.4 | 2.2 | – | 0.96 | – | – | –
Clc1ccc(Oc2ccc(Cl)cc2OCCCCOc2cc(Cl)ccc2Oc2ccc(Cl)cc2Cl)c(Cl)c1 | 23.9 | 99.7 | 22.3 | 4.5 | – | 0.93 | – | – | –
Oc1cc(Cl)c(NCc2cn(CCOc3cc(Cl)ccc3Oc3ccc(Cl)cc3Cl)nn2)cc1Oc1ccc(Cl)cc1Cl | 17.2 | 99.3 | 22.3 | 4.5 | – | 1.29 | – | – | –
Clc1ccc(Oc2ccc(Cl)cc2OCCCn2cc(COc3cc(Cl)ccc3Oc3ccc(Cl)cc3Cl)nn2)c(Cl)c1 | 21 | 103 | 24.7 | 4.2 | – | 1.17 | – | – | –
Oc1cc(Cl)c(NCc2cn(CCCCOc3cc(Cl)ccc3Oc3ccc(Cl)cc3Cl)nn2)cc1Oc1ccc(Cl)cc1Cl | 24.2 | 72.1 | 21.8 | 3.3 | – | 0.9 | – | – | –
O=[N+]([O-])c1cc(Oc2ccc(Cl)cc2Cl)c(OCc2cn(CCCCCOc3cc(Cl)ccc3Oc3ccc(Cl)cc3Cl)nn2)cc1Cl | 28.2 | 116 | 30.7 | 3.8 | – | 1.08 | – | – | –
